Source: patent publication US5962502A, “Polyamidic acid derivatives with antigastrin activity, a method for their preparation, and their pharmaceutical use” (priority 1993, dated 1999)
Where “and” joins values, the source holds several entries; their conditions need not be identical. Equal values may be shown once.

Target: T1, gastrin receptors or type-B cholecystokinin (CCK-B) receptors (Oryctolagus cuniculus, UniProt P46627)
T1 construct: Rabbit gastric mucous-membrane cells were prepared by conventional techniques; endogenous in cells; host or cells: freshly isolated rabbit gastric mucosal cells, enriched by elutriation to about 70% parietal cells
T1 sequence (P46627 1-452): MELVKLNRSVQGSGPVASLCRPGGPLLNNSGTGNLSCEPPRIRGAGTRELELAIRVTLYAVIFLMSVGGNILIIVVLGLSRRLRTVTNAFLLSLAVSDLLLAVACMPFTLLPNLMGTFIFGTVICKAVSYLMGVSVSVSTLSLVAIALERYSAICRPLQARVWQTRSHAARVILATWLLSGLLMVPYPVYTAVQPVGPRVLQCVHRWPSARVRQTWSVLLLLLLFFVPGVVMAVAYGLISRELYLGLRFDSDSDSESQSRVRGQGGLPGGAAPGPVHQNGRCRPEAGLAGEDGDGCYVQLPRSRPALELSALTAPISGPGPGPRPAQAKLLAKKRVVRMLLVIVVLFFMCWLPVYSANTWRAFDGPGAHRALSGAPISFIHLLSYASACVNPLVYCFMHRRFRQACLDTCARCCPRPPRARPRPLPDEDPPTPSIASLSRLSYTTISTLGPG
Assay: Inhibition of the gastrin-induced increase of cytosolic calcium in rabbit gastric mucous-membrane cells (Fura 2)
Assay type: cell-based
Conditions: binding values taken from Table 3
Method in brief: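 Enzymatically dispersed (collagenase/pronase) rabbit gastric mucosal cells, loaded with Fura 2, were suspended at 0.8×10^6/ml in HEPES-buffered saline at 37 °C with stirring. Gastrin-induced cytosolic Ca²⁺ rise was measured with and without compound by fluorescence (excitation 340/380 nm, emission 505 nm).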

Row | Compound | Ratio IC50 Binding cortex / IC50 (gastric mucous cells)
1 | O=C(CC[C@@H](NC(=O)c1cc(Cl)cc(Cl)c1)C(=O)N1CCC2(CCCC2)CC1)N[C@@H](Cc1c[nH]c2ccccc12)C(=O)O [Compound 20] | 7.3
2 | O=C(CC[C@@H](NC(=O)c1cc(Cl)cc(Cl)c1)C(=O)N1CCC2(CCCC2)CC1)N[C@H](Cc1cccc2ccccc12)C(=O)O [Compound 25] | 10.0
3 | O=C(CC[C@@H](NC(=O)c1cc(Cl)cc(Cl)c1)C(=O)N1CCC2(CCCCC2)CC1)N[C@H](Cc1c[nH]c2ccccc12)C(=O)O [Compound 30] | 12.5
4 | O=C(CC[C@@H](NC(=O)c1cc(Cl)cc(Cl)c1)C(=O)N1CCC2(CCCC2)CC1)Nc1ccccc1C(=O)O [Compound 50] | 15.0

Same assay, conditions: data taken from Table 4 (rabbit gastric mucous cells), reprinted in Table 6

Row | Compound | CCK-B-antagonistic activity IC50 (II)
5 | O=C(CC[C@@H](NC(=O)c1cc(Cl)cc(Cl)c1)C(=O)N1CCC2(CCCC2)CC1)N[C@@H](Cc1c[nH]c2ccccc12)C(=O)O [Compound 20] | 0.03 µM
6 | O=C(CC[C@@H](NC(=O)c1cc(Cl)cc(Cl)c1)C(=O)N1CCC2(CCCC2)CC1)N[C@H](Cc1cccc2ccccc12)C(=O)O [Compound 25] | 0.007 µM
7 | O=C(CC[C@@H](NC(=O)c1cc(Cl)cc(Cl)c1)C(=O)N1CCC2(CCCCC2)CC1)N[C@H](Cc1c[nH]c2ccccc12)C(=O)O [Compound 30] | 0.008 µM

Same assay, conditions: rabbit gastric mucous cells

Row | Compound | IC50 order of magnitude, peripheral antigastrin activity
8 | O=C(CC[C@@H](NC(=O)c1cc(Cl)cc(Cl)c1)C(=O)N1CCC2(CCCC2)CC1)N[C@H](Cc1cccc2ccccc12)C(=O)O [Compound 25] | nanomolar order of magnitude
9 | O=C(CC[C@@H](NC(=O)c1cc(Cl)cc(Cl)c1)C(=O)N1CCC2(CCCCC2)CC1)N[C@H](Cc1c[nH]c2ccccc12)C(=O)O [Compound 30] | nanomolar order of magnitude

Same assay, conditions: rabbit gastric mucous cells enriched in parietal cells, gastrin 5×10^-8

Row | Compound | IC50, inhibition of the increase of cytosolic calcium
10 | O=C(CC[C@@H](NC(=O)c1cc(Cl)cc(Cl)c1)C(=O)N1CCC2(CCCC2)CC1)N[C@@H](Cc1c[nH]c2ccccc12)C(=O)O [Compound 20] | 0.03 µM
11 | O=C(CC[C@@H](NC(=O)c1cc(Cl)cc(Cl)c1)C(=O)N1CCC2(CCCC2)CC1)N[C@H](Cc1cccc2ccccc12)C(=O)O [Compound 25] | 0.007 µM
12 | O=C(CC[C@@H](NC(=O)c1cc(Cl)cc(Cl)c1)C(=O)N1CCC2(CCCCC2)CC1)N[C@H](Cc1c[nH]c2ccccc12)C(=O)O [Compound 30] | 0.008 µM
13 | O=C(CC[C@@H](NC(=O)c1cc(Cl)cc(Cl)c1)C(=O)N1CCC2(CCCC2)CC1)Nc1ccccc1C(=O)O [Compound 50] | 0.03 µM

Target: T2, CCK-A (Cavia porcellus, UniProt Q63931)
T2 construct: A longitudinal strip of guinea-pig gall-bladder was put in a bath for isolated organs; from tissue; host or cells: guinea-pig gall bladder longitudinal strip
T2 sequence (Q63931 1-430): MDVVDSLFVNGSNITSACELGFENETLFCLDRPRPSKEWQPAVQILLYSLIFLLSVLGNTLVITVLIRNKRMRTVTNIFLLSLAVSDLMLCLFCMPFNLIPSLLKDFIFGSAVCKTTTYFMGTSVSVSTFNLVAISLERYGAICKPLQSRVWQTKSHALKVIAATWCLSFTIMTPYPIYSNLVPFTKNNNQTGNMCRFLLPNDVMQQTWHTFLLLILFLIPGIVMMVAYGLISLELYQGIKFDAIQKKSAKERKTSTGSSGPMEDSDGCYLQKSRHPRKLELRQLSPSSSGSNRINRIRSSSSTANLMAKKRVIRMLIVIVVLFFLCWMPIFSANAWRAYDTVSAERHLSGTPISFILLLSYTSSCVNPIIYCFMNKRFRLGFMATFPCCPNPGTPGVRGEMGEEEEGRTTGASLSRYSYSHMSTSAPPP
Assay: Anti-CCK-A activity on guinea-pig gall bladder stimulated in vitro by CCK-8
Conditions: gall bladder IC50 over gastric mucous cells IC50
Procedure: The experimental model used was guinea-pig gall bladder stimulated in vitro by CCK-8, with the use of lorglumide as the reference standard. A longitudinal strip of guinea-pig gall-bladder was put in a bath for isolated organs in the presence of Krebs buffer at a temperature of 32° C., with continuous oxygenation with an oxygen-CO2 mixture (95-[…]). The isometric contractions were detected by means of a force transducer and recorded.

Row | Compound | Ratio I/II (CCK-A IC50 / CCK-B IC50)
14 | O=C(CC[C@@H](NC(=O)c1cc(Cl)cc(Cl)c1)C(=O)N1CCC2(CCCC2)CC1)N[C@@H](Cc1c[nH]c2ccccc12)C(=O)O [Compound 20] | 1397
15 | O=C(CC[C@@H](NC(=O)c1cc(Cl)cc(Cl)c1)C(=O)N1CCC2(CCCC2)CC1)N[C@H](Cc1cccc2ccccc12)C(=O)O [Compound 25] | 1214
16 | O=C(CC[C@@H](NC(=O)c1cc(Cl)cc(Cl)c1)C(=O)N1CCC2(CCCCC2)CC1)N[C@H](Cc1c[nH]c2ccccc12)C(=O)O [Compound 30] | 1837
17 | O=C(CC[C@@H](NC(=O)c1cc(Cl)cc(Cl)c1)C(=O)N1CCC2(CCCC2)CC1)Nc1ccccc1C(=O)O [Compound 50] | 160.0

Same assay, conditions: guinea-pig gall bladder in vitro, CCK-8 10 ng/ml; read-out: CCK-A-antagonistic activity IC50 (I)

Row | Compound | IC50
18 | O=C(CC[C@@H](NC(=O)c1cc(Cl)cc(Cl)c1)C(=O)N1CCC2(CCCC2)CC1)N[C@@H](Cc1c[nH]c2ccccc12)C(=O)O [Compound 20] | 41.9 µM
19 | O=C(CC[C@@H](NC(=O)c1cc(Cl)cc(Cl)c1)C(=O)N1CCC2(CCCC2)CC1)N[C@H](Cc1cccc2ccccc12)C(=O)O [Compound 25] | 8.5 µM
20 | O=C(CC[C@@H](NC(=O)c1cc(Cl)cc(Cl)c1)C(=O)N1CCC2(CCCCC2)CC1)N[C@H](Cc1c[nH]c2ccccc12)C(=O)O [Compound 30] | 14.7 µM
21 | O=C(CC[C@@H](NC(=O)c1cc(Cl)cc(Cl)c1)C(=O)N1CCC2(CCCC2)CC1)Nc1ccccc1C(=O)O [Compound 50] | 4.8 µM

Test system: acid secretion induced by pentagastrin
Assay: Acid secretion induced by pentagastrin in the anaesthetized rat
Assay type: in vivo
Conditions: iv, 1 h, I.V. bolus, pentagastrin 30 mcg/kg/h, read-out: Activity (ID50), inhibition of the acid secretion induced by pentagastrin
Procedure: The activity of the compounds of the invention against gastric secretion performed by means of a mechanism with an antigastrin effect, was examined in vivo in anaesthetized rats with the use of male animals weighing about 200 g. Gastric secretion was stimulated with pentagastrin and Lai's method [Gut 5, (1964), 327-341 ] was used, with slight modification.
After tracheotomy, the oesophagus and duodenum were cannulated. A tepid solution (37° C.) of 0.25 mM NaOH was perfused and was passed through the stomach by means of a peristaltic pump at a constant flow-rate of 1 ml/minute. After stabilization for 20 minutes, the stimulant, dissolved in a physiological solution, was perfused for 120 minutes at a dose of 30 mcg/kg/h, in a volume of 0.95 ml/hour. After perfusion for 60 minutes (the basal stimulation), the product under test was administered intravenously (I.V.) as a bolus and perfusion of the stimulant was continued for a further 60 minutes. The acid secretion was recorded continuously as a function of time.
The activity of the product was evaluated as the percentage reduction of secreted acidity after the administration of the product, in comparison with the basal acidity measured during the first 60 minutes of collection in the presence of pentagastrin alone.
The antagonistic compounds tested were administered in various doses so that an ID50, that is, the dose (in mg/kg I.V.) which could inhibit the effect of pentagastrin by 50%, could be calculated.

Row | Compound | ED50
22 | O=C(CC[C@@H](NC(=O)c1cc(Cl)cc(Cl)c1)C(=O)N1CCC2(CCCC2)CC1)N[C@@H](Cc1c[nH]c2ccccc12)C(=O)O [Compound 20] | 10.9 mg/kg and 17.4 µmol/kg
23 | O=C(CC[C@@H](NC(=O)c1cc(Cl)cc(Cl)c1)C(=O)N1CCC2(CCCC2)CC1)N[C@H](Cc1cccc2ccccc12)C(=O)O [Compound 25] | 7.1 mg/kg and 11.1 µmol/kg
24 | O=C(CC[C@@H](NC(=O)c1cc(Cl)cc(Cl)c1)C(=O)N1CCC2(CCCCC2)CC1)N[C@H](Cc1c[nH]c2ccccc12)C(=O)O [Compound 30] | 15.2 mg/kg and 23.7 µmol/kg
25 | O=C(CC[C@@H](NC(=O)c1cc(Cl)cc(Cl)c1)C(=O)N1CCC2(CCCC2)CC1)Nc1ccccc1C(=O)O [Compound 50] | 12 mg/kg and 21.4 µmol/kg

Same assay, conditions: pentagastrin-induced acid secretion

Row | Compound | antigastrin activity relative to the diastereoisomer at the carbon atom (**)
26 | O=C(CC[C@@H](NC(=O)c1cc(Cl)cc(Cl)c1)C(=O)N1CCC2(CCCC2)CC1)N[C@@H](Cc1c[nH]c2ccccc12)C(=O)O [Compound 20] | almost the same antigastrin activity

Target: T3, central CCK-B receptor (Cavia porcellus, UniProt H0VZC5)
T3 construct: Cerebral cortices of male white guinea-pigs were thus used; from tissue; host or cells: cerebral cortex membranes of male white guinea-pigs
T3 sequence (H0VZC5 1-426): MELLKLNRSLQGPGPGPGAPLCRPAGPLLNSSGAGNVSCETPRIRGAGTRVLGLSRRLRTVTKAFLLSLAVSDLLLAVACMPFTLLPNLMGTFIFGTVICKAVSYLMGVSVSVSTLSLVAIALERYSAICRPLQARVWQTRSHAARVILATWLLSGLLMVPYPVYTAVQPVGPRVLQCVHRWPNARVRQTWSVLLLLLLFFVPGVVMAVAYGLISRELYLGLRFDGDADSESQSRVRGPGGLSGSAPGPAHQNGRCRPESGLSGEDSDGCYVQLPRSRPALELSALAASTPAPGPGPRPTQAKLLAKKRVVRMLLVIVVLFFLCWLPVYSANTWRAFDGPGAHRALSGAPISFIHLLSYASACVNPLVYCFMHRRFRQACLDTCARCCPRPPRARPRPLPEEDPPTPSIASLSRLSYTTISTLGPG
Assay: Inhibition of the binding of [3-H][N-methyl-N-leucine]CCK-8 to guinea-pig cortical membranes
Conditions: guinea-pig cortical membranes
Method in brief: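 Male guinea-pig cerebral cortex membranes (about 300 mcg protein/ml) incubated with non-sulphated [3-H]-labelled CCK-8 tracer and compound 150 minutes at 25° C. Pellet radioactivity counted by liquid scintillation; nonspecific binding defined with 5.10^-6 M CCK-8.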

Row | Compound | inhibition of the binding of [N-methyl-N-leucine]CCK-8, result in words
27 | O=C(CC[C@@H](NC(=O)c1cc(Cl)cc(Cl)c1)C(=O)N1CCC2(CCCC2)CC1)N[C@H](Cc1cccc2ccccc12)C(=O)O [Compound 25] | potent inhibitors
28 | O=C(CC[C@@H](NC(=O)c1cc(Cl)cc(Cl)c1)C(=O)N1CCC2(CCCCC2)CC1)N[C@H](Cc1c[nH]c2ccccc12)C(=O)O [Compound 30] | potent inhibitors

Same assay, conditions: guinea-pig cortical membranes, 150 minutes at 25° C.

Row | Compound | IC50
29 | O=C(CC[C@@H](NC(=O)c1cc(Cl)cc(Cl)c1)C(=O)N1CCC2(CCCC2)CC1)N[C@@H](Cc1c[nH]c2ccccc12)C(=O)O [Compound 20] | 0.22 µM
30 | O=C(CC[C@@H](NC(=O)c1cc(Cl)cc(Cl)c1)C(=O)N1CCC2(CCCC2)CC1)N[C@H](Cc1cccc2ccccc12)C(=O)O [Compound 25] | 0.07 µM
31 | O=C(CC[C@@H](NC(=O)c1cc(Cl)cc(Cl)c1)C(=O)N1CCC2(CCCCC2)CC1)N[C@H](Cc1c[nH]c2ccccc12)C(=O)O [Compound 30] | 0.1 µM
32 | O=C(CC[C@@H](NC(=O)c1cc(Cl)cc(Cl)c1)C(=O)N1CCC2(CCCC2)CC1)Nc1ccccc1C(=O)O [Compound 50] | 0.45 µM

Test system: CCK-B receptors
Assay: not given
Conditions: guinea-pig; Knapp et al; cited from earlier work

Row | Compound | affinity for the receptors of the cortex (CCK-B) relative to those of the pancreas (CCK-A)
33 | non-sulphated [3-H] [N-methyl-N-leucine]CCK-8 | approximately 4000 times
